Test results: patent US12077503B2, “Substituted cyclic amides and their use as herbicides” (FMC CORPORATION, priority 2015, dated 2024)
Like-named read-outs stand apart in the source and are kept apart here.

Columns and labels:
Format in all cases: in vivo
Kochia (Kochia scoparia) = assay: Test A preemergence; conditions: Bassia scoparia, pre-emergence, 240 h, preemergence; for pest or weed control at 125 g/ha: 125 g ai/ha; for pest or weed control at 500 g/ha: 500 g ai/ha
Procedure, shortened: (§1)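 Greenhouse, ~10 d after spray; visual injury vs untreated controls, 0 = no effect, 100 = complete control. Preemergence: directed soil spray over planted seeds. Postemergence: plants 2–10 cm, 1–2 leaf stage. Loam/sand blend. Compound in non-phytotoxic solvent with surfactant.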

[1] = test system: barnyardgrass (Echinochloa crus-galli); assay: Test A preemergence; conditions: Echinochloa crus-galli, pre-emergence, 240 h, preemergence; for pest or weed control at 125 g/ha: 125 g ai/ha; for pest or weed control at 500 g/ha: 500 g ai/ha
Procedure, shortened: as §1

[2] = test system: giant foxtail (Setaria faberii); assay: Test A preemergence; conditions: Setaria faberi, pre-emergence, 240 h, preemergence; for pest or weed control at 125 g/ha: 125 g ai/ha; for pest or weed control at 500 g/ha: 500 g ai/ha
Procedure, shortened: as §1

[3] = test system: pigweed (Amaranthus retroflexus); assay: Test A preemergence; conditions: Amaranthus retroflexus, pre-emergence, 240 h, preemergence; for pest or weed control at 125 g/ha: 125 g ai/ha; for pest or weed control at 500 g/ha: 500 g ai/ha
[4] = test system: ragweed (common ragweed, Ambrosia elatior); assay: Test A preemergence; conditions: Ambrosia artemisiifolia, pre-emergence, 240 h, preemergence; for pest or weed control at 125 g/ha: 125 g ai/ha; for pest or weed control at 500 g/ha: 500 g ai/ha
Procedure, shortened: as §1

[5] = test system: ryegrass, Italian (Italian ryegrass, Lolium multiflorum); assay: Test A preemergence; conditions: Lolium multiflorum, pre-emergence, 240 h, preemergence; for pest or weed control at 125 g/ha: 125 g ai/ha; for pest or weed control at 500 g/ha: 500 g ai/ha
Procedure, shortened: as §1

[6] = test system: blackgrass (Alopecurus myosuroides); assay: Test A postemergence; conditions: Alopecurus myosuroides, post-emergence, 240 h; for pest or weed control at 125 g/ha: 125 g ai/ha
Procedure, shortened: as §1

[7] = test system: giant foxtail (Setaria faberii); assay: Test A postemergence; conditions: Setaria faberi, post-emergence, 240 h; for pest or weed control at 125 g/ha: 125 g ai/ha
Procedure, shortened: as §1

[8] = test system: pigweed (Amaranthus retroflexus); assay: Test A postemergence; conditions: Amaranthus retroflexus, post-emergence, 240 h; for pest or weed control at 125 g/ha: 125 g ai/ha
Procedure, shortened: as §1

[9] = test system: ryegrass, Italian (Italian ryegrass, Lolium multiflorum); assay: Test A postemergence; conditions: Lolium multiflorum, post-emergence, 240 h; for pest or weed control at 125 g/ha: 125 g ai/ha
Procedure, shortened: as §1

[10] = test system: wheat (Triticum aestivum); assay: Test A postemergence; conditions: Triticum aestivum, post-emergence, 240 h; for plant injury at 125 g/ha: 125 g ai/ha
Procedure, shortened: as §1

[11] = test system: barnyardgrass (Echinochloa crus-galli); assay: Test B flooded paddy test; conditions: Echinochloa crus-galli, 250 g ai/ha, Flood, read-out: Barnyardgrass plant response rating
Procedure, shortened: (§2)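 Flooding to 3 cm over soil accompanied treatment, which consisted of adding compound to the standing water around 2-leaf plants; depth was then maintained. Visual assessment versus controls followed at 13 to 15 d (scale 0–100, 0 meaning no effect).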

[12] = test system: ducksalad (Heteranthera limosa); assay: Test B flooded paddy test; conditions: Heteranthera limosa, 250 g ai/ha, Flood, read-out: Ducksalad plant response rating
Procedure, shortened: as §2

rice (Oryra sativa) = assay: Test B flooded paddy test; conditions: Oryza sativa, 250 g ai/ha, Flood, read-out: Rice plant response rating
Procedure, shortened: as §2

[13] = test system: sedge, umbrella (small-flower umbrella sedge, Cyperus difformis); assay: Test B flooded paddy test; conditions: Cyperus difformis, 250 g ai/ha, Flood, read-out: Sedge, Umbrella plant response rating
Procedure, shortened: as §2

[14] = 0 to 100 scale where 0 is no effect and 100 is complete control
[15] = scale of 0 to 100 where 0 is no effect and 100 is complete control

Cc1cc(F)cc([C@H]2CNC(=O)[C@@H]2C(=O)Nc2cccc(F)c2C)c1 [Compound 1308]
50%: pest or weed control at 500 g/ha (Kochia (Kochia scoparia); 0 to 100 scale where 0 is no effect and 100 is complete control, read-out: Kochia plant response rating) | pest or weed control at 500 g/ha ([6]; Postemergence, 500 g ai/ha, visual injury, 0 to 100 scale (0 no effect, 100 complete control), approx. 10 d, read-out: Plant response rating, Blackgrass)
65%: pest or weed control at 250 g/ha [11, 14]
20%: pest or weed control at 500 g/ha ([3]; 0 to 100 scale where 0 is no effect and 100 is complete control, read-out: Pigweed plant response rating) | pest or weed control at 125 g/ha ([7]; Postemergence, visual rating about 10 d after treatment, read-out: Foxtail, Giant plant response rating (0 to 100 scale)) | plant injury at 125 g/ha ([10]; Postemergence, visual rating about 10 d after treatment, read-out: Wheat plant response rating (0 to 100 scale))
0%: pest or weed control at 125 g/ha (Kochia (Kochia scoparia); visual injury rating, 0 to 100 scale where 0 is no effect and 100 is complete control, approximately 10 d, read-out: Kochia plant response rating) | pest or weed control at 125 g/ha ([3]; visual injury rating, 0 to 100 scale where 0 is no effect and 100 is complete control, approximately 10 d, read-out: Pigweed plant response rating) | pest or weed control at 125 g/ha ([4]; visual injury rating, 0 to 100 scale where 0 is no effect and 100 is complete control, approximately 10 d, read-out: Ragweed plant response rating) | pest or weed control at 125 g/ha ([5]; visual injury rating, 0 to 100 scale where 0 is no effect and 100 is complete control, approximately 10 d, read-out: Ryegrass, Italian plant response rating) | pest or weed control at 500 g/ha ([5]; 0 to 100 scale where 0 is no effect and 100 is complete control, read-out: Ryegrass, Italian plant response rating) | pest or weed control at 125 g/ha ([8]; Postemergence, visual rating about 10 d after treatment, read-out: Pigweed plant response rating (0 to 100 scale)) | pest or weed control at 500 g/ha ([8]; Postemergence, 500 g ai/ha, visual injury, 0 to 100 scale (0 no effect, 100 complete control), approx. 10 d, read-out: Plant response rating, Pigweed) | pest or weed control at 125 g/ha ([9]; Postemergence, visual rating about 10 d after treatment, read-out: Ryegrass, Italian plant response rating (0 to 100 scale)) | pest or weed control at 500 g/ha ([9]; Postemergence, 500 g ai/ha, visual injury, 0 to 100 scale (0 no effect, 100 complete control), approx. 10 d, read-out: Plant response rating, Ryegrass, Italian) | pest or weed control at 250 g/ha [13, 14]
80%: pest or weed control at 500 g/ha ([7]; Postemergence, 500 g ai/ha, visual injury, 0 to 100 scale (0 no effect, 100 complete control), approx. 10 d, read-out: Plant response rating, Foxtail, Giant)
40%: plant injury at 500 g/ha ([10]; Postemergence, 500 g ai/ha, visual injury, 0 to 100 scale (0 no effect, 100 complete control), approx. 10 d, read-out: Plant response rating, Wheat) | pest or weed control at 250 g/ha (rice (Oryra sativa); [14])
70%: pest or weed control at 500 g/ha ([4]; 0 to 100 scale where 0 is no effect and 100 is complete control, read-out: Ragweed plant response rating)
90%: pest or weed control at 125 g/ha ([1]; visual injury rating, 0 to 100 scale where 0 is no effect and 100 is complete control, approximately 10 d, read-out: Barnyardgrass plant response rating) | pest or weed control at 500 g/ha ([1]; 0 to 100 scale where 0 is no effect and 100 is complete control, read-out: Barnyardgrass plant response rating) | pest or weed control at 125 g/ha ([2]; visual injury rating, 0 to 100 scale where 0 is no effect and 100 is complete control, approximately 10 d, read-out: Foxtail, Giant plant response rating) | pest or weed control at 500 g/ha ([2]; 0 to 100 scale where 0 is no effect and 100 is complete control, read-out: Foxtail, Giant plant response rating)
30%: pest or weed control at 125 g/ha ([6]; Postemergence, visual rating about 10 d after treatment, read-out: Blackgrass plant response rating (0 to 100 scale))
100%: pest or weed control at 250 g/ha [12, 14]

C=CCN1C[C@H](c2ccc(OC)c(F)c2)[C@@H](C(=O)Nc2ccccc2C(F)(F)F)C1=O [Compound 723]
50%: pest or weed control at 500 g/ha ([2]; 0 to 100 scale, 0 = no effect, 100 = complete control, read-out: Plant response rating, Foxtail, Giant)
0%: pest or weed control at 125 g/ha (Kochia (Kochia scoparia); visual rating after approx. 10 d, 0 to 100 scale where 0 is no effect and 100 is complete control, read-out: Plant response rating, Kochia) | pest or weed control at 500 g/ha (Kochia (Kochia scoparia); 0 to 100 scale, 0 = no effect, 100 = complete control, read-out: Plant response rating, Kochia) | pest or weed control at 125 g/ha ([1]; visual rating after approx. 10 d, 0 to 100 scale where 0 is no effect and 100 is complete control, read-out: Plant response rating, Barnyardgrass) | pest or weed control at 500 g/ha ([1]; 0 to 100 scale, 0 = no effect, 100 = complete control, read-out: Plant response rating, Barnyardgrass) | pest or weed control at 125 g/ha ([2]; visual rating after approx. 10 d, 0 to 100 scale where 0 is no effect and 100 is complete control, read-out: Plant response rating, Foxtail, Giant) | pest or weed control at 125 g/ha ([3]; visual rating after approx. 10 d, 0 to 100 scale where 0 is no effect and 100 is complete control, read-out: Plant response rating, Pigweed) | pest or weed control at 500 g/ha ([3]; 0 to 100 scale, 0 = no effect, 100 = complete control, read-out: Plant response rating, Pigweed) | pest or weed control at 125 g/ha ([4]; visual rating after approx. 10 d, 0 to 100 scale where 0 is no effect and 100 is complete control, read-out: Plant response rating, Ragweed) | pest or weed control at 500 g/ha ([4]; 0 to 100 scale, 0 = no effect, 100 = complete control, read-out: Plant response rating, Ragweed) | pest or weed control at 125 g/ha ([5]; visual rating after approx. 10 d, 0 to 100 scale where 0 is no effect and 100 is complete control, read-out: Plant response rating, Ryegrass, Italian) | pest or weed control at 500 g/ha ([5]; 0 to 100 scale, 0 = no effect, 100 = complete control, read-out: Plant response rating, Ryegrass, Italian) | pest or weed control at 125 g/ha ([6]; postemergence, visual injury after approximately 10 d, 0 to 100 scale (0 no effect, 100 complete control), read-out: Plant response rating, Blackgrass) | pest or weed control at 125 g/ha ([7]; postemergence, visual injury after approximately 10 d, 0 to 100 scale (0 no effect, 100 complete control), read-out: Plant response rating, Foxtail, Giant) | pest or weed control at 125 g/ha ([8]; postemergence, visual injury after approximately 10 d, 0 to 100 scale (0 no effect, 100 complete control), read-out: Plant response rating, Pigweed) | pest or weed control at 125 g/ha ([9]; postemergence, visual injury after approximately 10 d, 0 to 100 scale (0 no effect, 100 complete control), read-out: Plant response rating, Ryegrass, Italian) | plant injury at 125 g/ha ([10]; postemergence, visual injury after approximately 10 d, 0 to 100 scale (0 no effect, 100 complete control), read-out: Plant response rating, Wheat) | pest or weed control at 250 g/ha [11, 15] | pest or weed control at 250 g/ha [12, 15] | pest or weed control at 250 g/ha (rice (Oryra sativa); [15]) | pest or weed control at 250 g/ha [13, 15]
